Results from ChEMBL document CHEMBL4627399, “Synthesis and Structure-Activity Relationships of 5'-Aryl-14-alkoxypyridomorphinans: Identification of a μ Opioid Receptor Agonist/δ Opioid Receptor Antagonist Ligand with Systemic Antinociceptive Activity and Diminished Opioid Side Effects” (J Med Chem, 2020).
Activity calls are given as the source filed them. The calls are words filed in the database; no cut-off is given here.

How the values were obtained:
[1] = molecular target: T1, Delta-type opioid receptor (Homo sapiens, UniProt P41143); assay: Antagonist activity at human delta opioid receptor expressed in CHO cell membranes assessed as reduction in SNC80-induced [35S]GTPgammaS binding preincubated for 5 mins followed by SNC80 addition and measured after 1 hr; assay type: functional
[2] = Stability in human liver microsomes at 1 uM measured up to 60 mins by LC-MS/MS analysis; assay type: ADME, Microsome; conditions: 1 h
[3] = molecular target: T2, Mu-type opioid receptor (Homo sapiens, UniProt P35372); assay: Agonist activity at human mu opioid receptor expressed in CHO cell membranes assessed as stimulation of [35S]GTPgammaS binding incubated for 1 hr relative to DAMGO; assay type: functional
[4] = molecular target: T2, Mu-type opioid receptor; conditions: cho
[5] = molecular target: T1, Delta-type opioid receptor; assay: Displacement of [3H]-diprenorphine from human delta opioid receptor expressed in CHO cell membranes incubated for 1 hr by competition radioligand binding assay
[6] = molecular target: T3, Kappa-type opioid receptor (Homo sapiens, UniProt P41145); assay: Displacement of [3H]-diprenorphine from human kappa opioid receptor expressed in CHO cell membranes incubated for 1 hr by competition radioligand binding assay
[7] = molecular target: T2, Mu-type opioid receptor; assay: biochemical; assay type: cell-based, CHO
[8] = Induction of spontaneous withdrawal in CD-1 mouse assessed as effect on jumping behavior at 32 mg/kg, sc and administered twice daily at 9 am and 5 pm for 3 days and measured on day 4 for 30 mins; assay type: organism-based; conditions: in vivo, 0.5 h
[9] = Induction of physical dependence/precipitated withdrawal in naloxone-induced CD-1 mouse assessed as overall withdrawal score at 32 mg/kg, sc administered twice daily at 9 am and 5 pm for 3 days pretreated followed by naloxone challenge on day 4 at 4 hrs post compound dose and measured for 40 mins; assay type: organism-based; conditions: in vivo
[10] = Induction of tidal volume in CD-1 mouse up to 32 mg/kg, ip administered via bolus under 5% CO2 exposure for 7 mins and measured over 45 mins by whole body plethysmography; assay type: organism-based; conditions: in vivo
[11] = Induction of spontaneous withdrawal in CD-1 mouse assessed as effect on number of droppings at 32 mg/kg, sc and administered twice daily at 9 am and 5 pm for 3 days and measured on day 4 for 30 mins; assay type: organism-based; conditions: in vivo, 0.5 h
[12] = molecular target: T3, Kappa-type opioid receptor; assay: Agonist activity at human kappa opioid receptor expressed in CHO cell membranes incubated for 1 hr by [35S]GTPgammaS binding assay; assay type: functional; conditions: cho
[13] = molecular target: T3, Kappa-type opioid receptor; assay: Agonist activity at human kappa opioid receptor expressed in CHO cell membranes assessed as stimulation of [35S]GTPgammaS binding incubated for 1 hr relative to […]; assay type: functional
[14] = system: Mus musculus; assay: Antinociceptive activity in CD-1 mouse administered twice daily at 9 am and 5 pm for 3 days measured on day 4 by warm water tail-flick assay; assay type: functional
[15] = Induction of spontaneous withdrawal in naloxone-induced CD-1 mouse assessed as increase in urine output at 32 mg/kg, sc administered twice daily at 9 am and 5 pm for 3 days pretreated followed by naloxone challenge on day 4 at 4 hrs post compound dose and measured for 40 mins; assay type: organism-based; conditions: in vivo
[16] = Induction of spontaneous withdrawal in CD-1 mouse assessed as effect on backward walking steps at 32 mg/kg, sc and administered twice daily at 9 am and 5 pm for 3 days and measured on day 4 for 30 mins; assay type: organism-based; conditions: in vivo, 0.5 h
[17] = system: Mus musculus; assay: Antinociceptive activity in iv dosed CD-1 mouse measured after 10 to 180 mins by warm water tail-flick assay; assay type: functional, organism-based
[18] = system: Mus musculus; assay: Antinociceptive activity in CD-1 mouse at 1 to 10 mg/kg, iv measured after 15 to 90 mins by warm water tail-flick assay; assay type: functional, organism-based
[19] = Induction of spontaneous withdrawal in CD-1 mouse assessed as wet dog shakes at 32 mg/kg, sc and administered twice daily at 9 am and 5 pm for 3 days and measured on day 4 for 30 mins; assay type: organism-based; conditions: in vivo, 0.5 h
[20] = Induction of respiratory depression in CD-1 mouse assessed as reduction in tidal volume at 32 mg/kg, ip measured over 45 mins by plethysmography; assay type: organism-based; conditions: in vivo
[21] = Induction of respiratory depression in CD-1 mouse assessed as reduction in respiratory rate at 32 mg/kg, ip measured over 45 mins by plethysmography; assay type: organism-based; conditions: in vivo
[22] = Reward liability in CD-1 mouse assessed as increase in conditioned place preference at 20 mg/kg, sc administered for 5 days and measured on day 5 for 15 mins; assay type: ADME, organism-based; conditions: in vivo
[23] = Induction of spontaneous withdrawal in CD-1 mouse assessed as effect on urine output at 32 mg/kg, sc administered twice daily at 9 am and 5 pm for 3 days and measured on day 4 for 30 mins; assay type: organism-based; conditions: in vivo
[24] = system: Mus musculus; assay: Antinociceptive activity in naloxone induced CD-1 mouse at 32 mg/kg, sc measured over 4 hrs by warm water tail-flick assay; assay type: functional, organism-based
[25] = Reward liability in CD-1 mouse assessed as increase in conditioned place aversion at 20 mg/kg, sc administered for 5 days and measured on day 5 for 15 mins; assay type: ADME, organism-based; conditions: in vivo, 0.25 h
[26] = Induction of spontaneous withdrawal in naloxone-induced CD-1 mouse assessed as increase in fecal pellets at 32 mg/kg, sc administered twice daily at 9 am and 5 pm for 3 days pretreated followed by naloxone challenge on day 4 at 4 hrs post compound dose and measured for 40 mins; assay type: organism-based; conditions: in vivo
[27] = Induction of spontaneous withdrawal in CD-1 mouse assessed as ptosis at 32 mg/kg, sc and administered twice daily at 9 am and 5 pm for 3 days and measured on day 4 for 30 mins; assay type: organism-based; conditions: in vivo, 0.5 h
[28] = Induction of spontaneous withdrawal in CD-1 mouse assessed as paw tremors at 32 mg/kg, sc and administered twice daily at 9 am and 5 pm for 3 days and measured on day 4 for 30 mins; assay type: organism-based; conditions: in vivo, 0.5 h
[29] = Induction of respiratory depression in CD-1 mouse assessed as reduction in minute ventilation at 32 mg/kg, ip measured over 45 mins by plethysmography; assay type: organism-based; conditions: in vivo
[30] = Induction of spontaneous withdrawal in CD-1 mouse assessed as effect on fecal output at 32 mg/kg, sc and administered twice daily at 9 am and 5 pm for 3 days and measured on day 4 for 30 mins; assay type: organism-based; conditions: in vivo
[31] = Induction of physical dependence in naloxone-induced CD-1 mouse assessed as increase in jumping behavior at 32 mg/kg, sc administered twice daily at 9 am and 5 pm for 3 days pretreated followed by naloxone challenge on day 4 at 4 hrs post compound dose and measured for 40 mins; assay type: organism-based; conditions: in vivo
[32] = system: Mus musculus; assay: Antinociceptive activity in iv dosed CD-1 mouse measured after 15 mins by warm water tail-flick assay; assay type: functional, organism-based
[33] = molecular target: T2, Mu-type opioid receptor; assay: biochemical

With `Oc1ccc2c3c1O[C@H]1c4ncc(-c5ccc(Cl)cc5)cc4C[C@@]4(OCc5ccc6ccccc6n5)[C@@H](C2)N(CC2CC2)CC[C@]314` the IC50 [1] was 10.8 nM, the Stability [2] was “Stable” and the Emax [3] was “inactive”. The EC50 [4] was “Not Active”, the Ki [5] was 32.5 nM and the Ki [6] was 31 nM. The Ki [7] was 799 nM.

In the case of `COc1cccc(-c2cnc3c(c2)C[C@@]2(OCCCc4ccccc4)[C@H]4Cc5ccc(O)c6c5[C@@]2(CCN4CC2CC2)[C@H]3O6)c1`, the Activity [8] is reported as “Non-Toxic”, the Activity [9] is reported as “Toxic” and the Activity [10] is reported as “Toxic”. The Activity [11] was “Non-Toxic”, the IC50 [1] was 2.4 nM and the EC50 [12] was “Not Active”. For the same molecule, the Emax [13] was “inactive”, the ED50 [14] was 25.4 mg/kg and the Activity [15] was “Toxic”. For the same molecule, the Activity [16] was “Non-Toxic”, the Activity [17] was “Dose-dependent effect” and the Activity [18] was “Active”. The Activity [19] was “Non-Toxic”, the Activity [20] was “Non-Toxic” and the Stability [2] was “Stable”. For the same molecule, the Activity [21] was “Non-Toxic”, the Activity [22] was “Non-Toxic” and the Activity [23] was “Non-Toxic”. For the same molecule, the Activity [24] was “inactive”, the Activity [25] was “Non-Toxic” and the Ki [5] was 48 nM. The Ki [6] was 103 nM, the Activity [26] was “Toxic” and the Activity [27] was “Non-Toxic”. For the same molecule, the Activity [28] was “Non-Toxic”, the Activity [29] was “Non-Toxic” and the Activity [30] was “Non-Toxic”. The Activity [31] was “Non-Toxic”.

In the case of `Oc1ccc2c3c1O[C@H]1c4ncc(-c5ccc(Cl)cc5)cc4C[C@@]4(OCCOc5ccccc5)[C@@H](C2)N(CC2CC2)CC[C@]314`, the IC50 [1] is reported as 25.4 nM, the Stability [2] is reported as “Stable” and the Emax [3] is reported as “inactive”. For the same molecule, the EC50 [4] was “Not Active”, the Ki [5] was 172 nM and the Ki [6] was 21.3 nM. It also gave a Ki [7] of 819 nM.

With `Cc1nnc(-c2cnc3c(c2)C[C@@]2(OCCCc4ccccc4)[C@H]4Cc5ccc(O)c6c5[C@@]2(CCN4CC2CC2)[C@H]3O6)o1` the Activity [32] was “Dose-dependent effect”, the IC50 [1] was less than 0.17 nM and the EC50 [12] was “Not Active”. The Emax [13] was “inactive”, the EC50 [33] was 17.5 nM and the Stability [2] was “Stable”. The Ki [5] was 8.12 nM, the Ki [6] was 14.8 nM and the Ki [7] was 3.18 nM.

In the case of `Oc1ccc2c3c1O[C@H]1c4ncc(-c5ccccc5)cc4C[C@@]4(OCCCc5ccncc5)[C@@H](C2)N(CC2CC2)CC[C@]314`, the IC50 [1] is reported as less than 0.51 nM, the Stability [2] is reported as “Stable” and the Emax [3] is reported as “inactive”. For the same molecule, the EC50 [4] was “Not Active”, the Ki [5] was 29.2 nM and the Ki [6] was 21.9 nM. For the same molecule, the Ki [7] was 3.82 nM.

In the case of `CN(C)Cc1ccccc1-c1cnc2c(c1)C[C@@]1(OCCCc3ccccc3)[C@H]3Cc4ccc(O)c5c4[C@@]1(CCN3CC1CC1)[C@H]2O5`, the IC50 [1] is reported as 11.7 nM, the EC50 [12] is reported as “Not Active” and the Emax [13] is reported as “inactive”. For the same molecule, the EC50 [33] was 28.9 nM, the Stability [2] was “Stable” and the Ki [5] was 14 nM. For the same molecule, the Ki [6] was 22.7 nM and the Ki [7] was 56.4 nM.

For `Oc1ccc2c3c1O[C@H]1c4ncc(-c5cncnc5)cc4C[C@@]4(OCCCc5ccccc5)[C@@H](C2)N(CC2CC2)CC[C@]314`, the IC50 [1] was 0.87 nM, the EC50 [12] was “Not Active” and the Emax [13] was “inactive”. For the same molecule, the EC50 [33] was greater than 3330 nM, the Stability [2] was “Stable” and the Ki [5] was 5.18 nM. The Ki [6] was 24.8 nM and the Ki [7] was 47.9 nM.

In the case of `Oc1ccc2c3c1O[C@H]1c4ncc(-c5ccc(Cl)cc5)cc4C[C@@]4(OCCCc5ccncc5)[C@@H](C2)N(CC2CC2)CC[C@]314`, the IC50 [1] is reported as 4.69 nM, the Stability [2] is reported as “Stable” and the Emax [3] is reported as “inactive”. For the same molecule, the EC50 [4] was “Not Active”, the Ki [5] was 5.24 nM and the Ki [6] was 10.3 nM. It also gave a Ki [7] of 5.37 nM.

With `COc1cc(-c2cnc3c(c2)C[C@@]2(OCCCc4ccccc4)[C@H]4Cc5ccc(O)c6c5[C@@]2(CCN4CC2CC2)[C@H]3O6)ccn1` the IC50 [1] was 0.7 nM, the EC50 [12] was “Not Active” and the Emax [13] was “inactive”. For the same molecule, the EC50 [33] was 2.69 nM, the Stability [2] was “Stable” and the Ki [5] was 3.5 nM. It also gave a Ki [6] of 6.62 nM and a Ki [7] of 10.7 nM.

With `Cc1cccc(-c2cnc3c(c2)C[C@@]2(OCCCc4ccccc4)[C@H]4Cc5ccc(O)c6c5[C@@]2(CCN4CC2CC2)[C@H]3O6)c1` the IC50 [1] was less than 0.169 nM, the EC50 [12] was “Not Active” and the Emax [13] was “inactive”. For the same molecule, the EC50 [33] was 20.6 nM, the Stability [2] was “Stable” and the Ki [5] was 26.8 nM. The Ki [6] was 17.6 nM and the Ki [7] was 24.4 nM.

In the case of `Cc1cc(-c2cnc3c(c2)C[C@@]2(OCCCc4ccccc4)[C@H]4Cc5ccc(O)c6c5[C@@]2(CCN4CC2CC2)[C@H]3O6)ccn1`, the IC50 [1] is reported as 0.39 nM, the EC50 [12] is reported as “Not Active” and the Emax [13] is reported as “inactive”. The EC50 [33] was 1.88 nM, the Stability [2] was “Stable” and the Ki [5] was 63.5 nM. It also gave a Ki [6] of less than 0.51 nM and a Ki [7] of 1.05 nM.

With `Oc1ccc2c3c1O[C@H]1c4ncc(-c5cn[nH]c5)cc4C[C@@]4(OCCCc5ccccc5)[C@@H](C2)N(CC2CC2)CC[C@]314` the IC50 [1] was 0.62 nM, the EC50 [12] was “Not Active” and the Emax [13] was “inactive”. The EC50 [33] was 3.29 nM, the Stability [2] was “Stable” and the Ki [5] was 257 nM. For the same molecule, the Ki [6] was 29.8 nM and the Ki [7] was 121 nM.
